From US20240398812A1 (Caraway Therapeutics, Inc., priority 2021, published 2024) come the findings set out here.

Holding throughout (type): cell-based
One test has as its target human TRPML1 (Homo sapiens, UniProt Q9GZU1). Put plainly: Fluorescent TRPML1 assay (Fluo4-AM calcium fluorescence, HEK-293 Trex cells). The method in brief: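 Agonist EC50 from non-linear regression of percent activity versus on-plate controls, calcium signal read at 480/540 nm. Compounds spanned 6 nM–20 μM final in triplicate. Cells: doxycycline-induced HEK-293 Trex with cell-surface human TRPML1 mutant, Fluo4-AM loaded, in Ringer's containing 10 mM calcium.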

The target in another test is T1, TRPML3 (Homo sapiens, UniProt Q8TDD5).
T1 construct: expressed in transfected cells
T1 sequence (Q8TDD5 1-553): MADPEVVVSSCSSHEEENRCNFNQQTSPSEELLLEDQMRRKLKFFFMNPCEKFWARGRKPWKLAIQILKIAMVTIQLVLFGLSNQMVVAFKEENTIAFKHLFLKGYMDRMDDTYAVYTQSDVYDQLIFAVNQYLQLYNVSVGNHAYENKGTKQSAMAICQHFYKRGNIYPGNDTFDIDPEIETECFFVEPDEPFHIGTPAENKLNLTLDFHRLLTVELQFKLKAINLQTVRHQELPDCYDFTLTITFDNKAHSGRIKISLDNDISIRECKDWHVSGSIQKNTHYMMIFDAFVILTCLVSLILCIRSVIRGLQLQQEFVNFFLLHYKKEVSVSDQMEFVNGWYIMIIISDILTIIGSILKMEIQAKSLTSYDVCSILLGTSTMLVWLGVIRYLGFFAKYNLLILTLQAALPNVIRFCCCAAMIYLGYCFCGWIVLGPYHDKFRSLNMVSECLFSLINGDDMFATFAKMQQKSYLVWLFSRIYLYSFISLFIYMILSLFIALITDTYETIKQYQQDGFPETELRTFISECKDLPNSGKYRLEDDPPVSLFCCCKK
The experiment in a line: Fluorescent TRPML3 assay (as for TRPML1). The method in brief:
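EC50 came from non-linear regression of percent activity, set against on-plate positive and negative controls, using Fluo4 fluorescence (ex 480, em 540 nm). Compounds ran in triplicate from 6 nM to 20 µM final in half-log steps. Doxycycline-induced (0.5 ug/mL) HEK-293 Trex cells expressing surface-directed mutant channel were in 10 mM calcium Ringer's.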

The next test has as its target T2, TRPML2 (Homo sapiens, UniProt Q8IZK6).
T2 construct: expressed in transfected cells
T2 sequence (Q8IZK6 1-566): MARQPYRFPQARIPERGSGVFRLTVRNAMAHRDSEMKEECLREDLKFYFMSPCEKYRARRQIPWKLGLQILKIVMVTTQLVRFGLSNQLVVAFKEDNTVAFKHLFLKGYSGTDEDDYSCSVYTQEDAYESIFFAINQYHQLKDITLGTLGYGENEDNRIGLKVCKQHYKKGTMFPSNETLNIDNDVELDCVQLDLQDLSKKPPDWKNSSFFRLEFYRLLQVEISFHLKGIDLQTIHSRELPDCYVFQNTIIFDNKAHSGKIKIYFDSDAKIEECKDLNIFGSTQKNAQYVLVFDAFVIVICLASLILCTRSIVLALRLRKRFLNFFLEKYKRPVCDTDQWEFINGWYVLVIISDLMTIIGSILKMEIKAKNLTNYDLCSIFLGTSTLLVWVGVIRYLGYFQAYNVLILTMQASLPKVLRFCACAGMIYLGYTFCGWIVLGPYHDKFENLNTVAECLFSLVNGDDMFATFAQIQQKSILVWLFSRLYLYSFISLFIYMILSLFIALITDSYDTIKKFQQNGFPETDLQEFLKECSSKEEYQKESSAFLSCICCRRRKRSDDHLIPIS
Put plainly: Fluorescent TRPML2 assay (as for TRPML1). The method, then:
HEK-293 Trex cells were stably transfected with a construct consisting of the human coding sequence for TRPML1 cloned into the tet-inducible plasmid pCDNA5 T/O. Mutations were introduced into the TRPML1 sequence to facilitate expression on the cell surface (Silvia Vergarajauregui, Rosa Puertollano Traffic. 2006 March; 7 (3): 337-353). Briefly, the cells are cultured in 150 mm round tissue culture dishes containing 20 mL of media. The day before the assay the cells are rinsed with DPBS —Ca—Mg and then treated briefly with Trypsin-EDTA. The Trypsin-EDTA is diluted with growth media, and cells are counted. 38×10^6 cells are re-plated into 150 mm round tissue culture dishes in media containing 0.5 ug/mL doxycycline to induce expression of hTRPML1.
The day of the experiment cells are lifted from the plates as above and collected by centrifugation. The cells are then suspended in dye loading buffer consisting of Ringer's solution supplemented with 0.1% Pluronic Acid and 1 micromolar Fluo4-AM dye. Cells are loaded for ˜60 minutes in the dark with occasional mixing. The cells are collected by centrifugation, the loading media aspirated, and the cells resuspended in 25 mL Ringer's solution and incubated ˜60 minutes in the dark. The cells are again collected by centrifugation, rinsed in Ringer's Solution and resuspended to 0.2×10^6 cells/mL in modified Ringer's solution containing 10 mM calcium.
Compounds are dissolved to a concentration of 10 millimolar with DMSO. Compound plates are created by dispensing compounds into 384 well black wall clear bottom plates (Greiner 781091). Positive and negative controls are included on each plate. Typically, different amounts of each compound are tested ranging from 100 nanoMoles (20 micromolar final concentration) decreasing in half-log steps to 31 picoMoles (6 nanomolar final concentration). Each concentration is typically tested in triplicate.
50 microliters of dye-loaded cells are dispensed into each well of the compound assay plate created above. The fluorescence in each well is then determined with an excitation wavelength of 480 nm and an emission wavelength of 540 nm using either a Molecular Devices SpectraMax multimode plate reader or a Hamamatsu FDSS/uCell plate imager.
The resulting fluorescence for each well is exported as an ascii file and loaded into our LIMS for analysis. The percent activity of each compound at each concentration is determined by comparison to the positive and negative control wells included in each plate.
Assays for TRPML2 and TRPML3 were performed as above for TRPML1, by substituting the appropriate TRPML2 or TRPML3 subtype for the TRPML1.
EC50 values were calculated using a non-linear regression of Prism. In the table, “A” indicates an EC50 of less than 100 nM, “B” indicates an EC50 range from 100 nM to 500 nM; “C” indicates an EC50 range from 500 nM to 2 μM; and “D” indicates an EC50 greater than 2 μM.

One may read the EC50 as the midpoint of the concentration-response curve.

Chain of human TRPML1 (Q9GZU1 whole entry L15A/L16A/L577A/L578A, form open): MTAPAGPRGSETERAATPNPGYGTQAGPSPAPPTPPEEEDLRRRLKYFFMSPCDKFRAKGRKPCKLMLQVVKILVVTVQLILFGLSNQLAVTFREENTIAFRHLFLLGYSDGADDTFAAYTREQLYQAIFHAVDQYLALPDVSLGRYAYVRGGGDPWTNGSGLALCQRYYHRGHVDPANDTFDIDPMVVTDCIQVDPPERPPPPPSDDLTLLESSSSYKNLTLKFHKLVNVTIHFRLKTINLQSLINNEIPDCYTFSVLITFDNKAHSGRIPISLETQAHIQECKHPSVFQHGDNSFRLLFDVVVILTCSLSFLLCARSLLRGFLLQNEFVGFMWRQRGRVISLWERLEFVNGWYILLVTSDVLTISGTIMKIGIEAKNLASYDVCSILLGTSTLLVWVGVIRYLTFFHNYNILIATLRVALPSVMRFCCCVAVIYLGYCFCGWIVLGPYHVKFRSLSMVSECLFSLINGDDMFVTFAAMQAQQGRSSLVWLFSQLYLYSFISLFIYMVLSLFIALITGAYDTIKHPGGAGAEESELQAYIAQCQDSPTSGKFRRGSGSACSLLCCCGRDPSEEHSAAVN

In the case of `C[C@@H]1CN(c2ncnc3c2c(C2CCC2)cn3-c2cccc(F)c2)[C@@H](C)CN1C(=O)C(C)(C)C` [Compound 250, 1-((2R,5S)-4-(5-cyclobutyl-7-(3-fluorophenyl)-7H-pyrrolo[2,3-d]pyrimidin-4-yl)-2,5-dimethylpiperazin-1-yl)-2,2-dimethylpropan-1-one], the EC50 at human TRPML1 (Table 3, compounds 201-283) was 100 to 500 nM; on TRPML3 (Table 3, compounds 201-283), 500 to 2000 nM; on TRPML2 (Table 3, compounds 201-283), over 2000 nM.

For the compound `[2H]C([2H])([2H])C(C(=O)N1C[C@H](C)N(c2ncnc3c2c(-c2ccccc2F)cn3-c2cc(C#N)ccn2)C[C@H]1C)(C([2H])([2H])[2H])C([2H])([2H])[2H]` [Compound 231, 2-(4-((2S,5R)-4-(2,2-bis(methyl-d3)propanoyl-3,3,3-d3)-2,5-dimethylpiperazin-1-yl)-5-(2-fluorophenyl)-7H-pyrrolo[2,3-d]pyrimidin-7-yl)isonicotinonitrile], the EC50 on human TRPML1 (Table 3, compounds 201-283) is under 100 nM; at TRPML3 (Table 3, compounds 201-283) it was under 100 nM; at TRPML2 (Table 3, compounds 201-283), under 100 nM.

Regarding `Cc1cc(C#N)cc(-n2cc(-c3ccccc3F)c3c(N4CCN(C(=O)C(C)C)C[C@@H]4C)ncnc32)n1` [Compound 143, (S)-2-(5-(2-fluorophenyl)-4-(4-isobutyryl-2-methylpiperazin-1-yl)-7H-pyrrolo[2,3-d]pyrimidin-7-yl)-6-methylisonicotinonitrile], the 50% effective concentration (EC50) lay in the range of 100 to 500 nM at human TRPML1 (Table 3, compounds 101-177); 100 to 500 nM at TRPML3 (Table 3, compounds 101-177); 100 to 500 nM on TRPML2 (Table 3, compounds 101-177).

With `COC1(C(=O)N2C[C@H](C)N(c3ncnc4c3c(-c3ccccc3)cn4-c3cc(C#N)ccn3)C[C@H]2C)CC1` [Compound 283, 2-(4-((2S,5R)-4-(1-methoxycyclopropane-1-carbonyl)-2,5-dimethylpiperazin-1-yl)-5-phenyl-7H-pyrrolo[2,3-d]pyrimidin-7-yl)isonicotinonitrile], the EC50 is under 100 nM on human TRPML1 (Table 3, compounds 201-283); under 100 nM on TRPML3 (Table 3, compounds 201-283); 100 to 500 nM on TRPML2 (Table 3, compounds 201-283).

On to `CC(C)CC(=O)N1CCN(c2ncnc3c2c(N2CCC2)cn3-c2cc(C#N)ccn2)C[C@H]1C` [Compound 272, (R)-2-(5-(azetidin-1-yl)-4-(3-methyl-4-(3-methylbutanoyl)piperazin-1-yl)-7H-pyrrolo[2,3-d]pyrimidin-7-yl)isonicotinonitrile], for which the EC50 at human TRPML1 (Table 3, compounds 201-283) was under 100 nM; at TRPML3 (Table 3, compounds 201-283), under 100 nM; at TRPML2 (Table 3, compounds 201-283), 100 to 500 nM.

Consider `C[C@@H]1CN(c2ncnc3c2c(N2CCC2)cn3-c2cc(C#N)ccn2)CCN1C(=O)C(C)(C)C` [Compound 271, (R)-2-(5-(azetidin-1-yl)-4-(3-methyl-4-pivaloylpiperazin-1-yl)-7H-pyrrolo[2,3-d]pyrimidin-7-yl)isonicotinonitrile], for which the EC50 on human TRPML1 (Table 3, compounds 201-283) is under 100 nM; on TRPML3 (Table 3, compounds 201-283), under 100 nM; on TRPML2 (Table 3, compounds 201-283) it was under 100 nM.

Turning to `COC(C)(C)C(=O)N1C[C@H](C)N(c2ncnc3c2c(C(F)(F)F)cn3-c2cc(C#N)ccn2)C[C@H]1C` [Compound 208, 2-(4-((2S,5R)-4-(2-methoxy-2-methylpropanoyl)-2,5-dimethylpiperazin-1-yl)-5-(trifluoromethyl)-7H-pyrrolo[2,3-d]pyrimidin-7-yl)isonicotinonitrile], the EC50 at human TRPML1 (Table 3, compounds 201-283) is under 100 nM; on TRPML3 (Table 3, compounds 201-283), under 100 nM; at TRPML2 (Table 3, compounds 201-283), 500 to 2000 nM.

For the compound `C[C@H]1CN(C(=O)CC(C)(C)C(F)(F)F)CCN1c1ncnc2c1c(-c1ccccc1F)cn2-c1cc(C#N)ccn1` [Compound 140, (S)-2-(5-(2-fluorophenyl)-4-(2-methyl-4-(4,4,4-trifluoro-3,3-dimethylbutanoyl)piperazin-1-yl)-7H-pyrrolo[2,3-d]pyrimidin-7-yl)isonicotinonitrile], the EC50 at human TRPML1 (Table 3, compounds 101-177) was under 100 nM; at TRPML3 (Table 3, compounds 101-177), under 100 nM; on TRPML2 (Table 3, compounds 101-177), under 100 nM.

In the case of `C[C@@H]1CN(c2ncnc3c2c(C(F)(F)F)cn3-c2cc(C#N)ccn2)[C@@H](C)CN1C(=O)C(C)(C)C` [Compound 207, 2-(4-((2S,5R)-2,5-dimethyl-4-pivaloylpiperazin-1-yl)-5-(trifluoromethyl)-7H-pyrrolo[2,3-d]pyrimidin-7-yl)isonicotinonitrile], the EC50 at human TRPML1 (Table 3, compounds 201-283) is under 100 nM; at TRPML3 (Table 3, compounds 201-283), under 100 nM; on TRPML2 (Table 3, compounds 201-283) it was 100 to 500 nM.
